For one series, the target named is T1, recombinant human Cox-2 (Homo sapiens, UniProt P35354).
T1 construct: made in house; host or cells: baculovirus/Sf9 insect cells (microsomes)
T1 sequence (P35354 18-604): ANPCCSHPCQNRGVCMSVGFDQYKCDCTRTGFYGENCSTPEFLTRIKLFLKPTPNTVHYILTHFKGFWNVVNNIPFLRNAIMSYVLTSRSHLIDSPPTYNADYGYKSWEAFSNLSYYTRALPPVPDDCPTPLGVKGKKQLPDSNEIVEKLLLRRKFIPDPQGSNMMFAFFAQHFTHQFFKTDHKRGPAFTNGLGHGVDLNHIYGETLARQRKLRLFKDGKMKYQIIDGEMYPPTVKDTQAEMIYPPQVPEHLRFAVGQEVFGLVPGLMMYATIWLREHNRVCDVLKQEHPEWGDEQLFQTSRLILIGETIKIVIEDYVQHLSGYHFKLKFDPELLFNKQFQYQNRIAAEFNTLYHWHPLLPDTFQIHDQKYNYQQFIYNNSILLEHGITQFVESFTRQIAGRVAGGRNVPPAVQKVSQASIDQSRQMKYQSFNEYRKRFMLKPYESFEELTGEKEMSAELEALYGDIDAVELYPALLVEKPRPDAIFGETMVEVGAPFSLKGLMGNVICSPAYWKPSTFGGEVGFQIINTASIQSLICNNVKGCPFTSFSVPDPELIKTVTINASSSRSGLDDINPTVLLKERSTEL
Briefly: Recombinant human PGHS-2 (Cox-2) enzyme assay, PGE2 by EIA. Type of series: biochemical. The note with it: at 1000 nM. The protocol: To compare the mean responses of the treatment groups, analysis of variance was applied. Percent inhibition values were determined by comparing the individual treatment mean values to the mean of the control group. Linear regression was used to estimate IC50's/ED50's in appropriate assays.
EIA reagents for prostaglandin determination were purchased from Perseptive Diagnostics, (Cambridge, Mass.). PGE2 levels in lavage fluids were determined after the samples were dried under nitrogen and reconstituted with assay buffer. PGE2 levels in enzyme assays or cell culture media were measured against standards prepared in the same milieu. The immunoassays were conducted as recommended by the manufacturer. The EIA was conducted in 96 well microtiter plates (Nunc Roskilde, Denmark) and optical density was measured using a microplate reader (Vmax, Molecular Devices Corp., Menlo Park, Calif.).
Inhibition of prostaglandin biosynthesis in vitro was evaluated using recombinant human Cox-1 (r-hu Cox1) and Cox-2 (r-hu Cox2) enzyme assays. […] PGE2 production in the presence and absence of the drug was determined by EIA analysis. The EIA was conducted in 96 well microtiter plates (Nunc Roskilde, Denmark) and optical density was measured using a microplate reader (Vmax, Molecular Devices Corp., Menlo Park, Calif.). […] PGE2 levels were measured against standards prepared in the same milieu. […]
For `CS(=O)(=O)c1ccc(-c2cc(=O)n(CC(F)(F)F)nc2-c2ccc(F)cc2)cc1` [Example 22, 2-(2,2,2-Trifluoroethyl)-5-(4-methylsulfonylphenyl)-6-(4-fluorphenyl)-3(2H)-pyridazinone], the “RHUCX2 Cox-2 percent inhibition” value is 46 @ 1000%.

Test system in the next series: not given
Experiment: not given
Settings: not given
As usually defined, the melting point is the temperature, or range, at which the solid turns liquid. In turn, `CS(=O)(=O)c1ccc(-c2cc(=O)[nH]nc2-c2ccc(F)cc2)cc1` [Example 6, 5-(4-Methylsulfonylphenyl)-6-(4-fluorophenyl)-3(2H)-pyridazinone] showed a melting point of 260 to 262 °C.

For `CS(=O)(=O)c1ccc(-c2cc(=O)n(Cc3ccccc3)nc2-c2ccc(F)cc2)cc1` [Example 7, 2-Benzyl-5-(4-methylsulfonylphenyl)-6-(4-fluorophenyl)-3(2H)-pyridazinone], the melting point was in the range of 172 to 174 °C.

In the case of `Cn1nc(-c2ccc(F)cc2)c(-c2ccc(S(C)(=O)=O)cc2)cc1=O` [Example 8, 2-Methyl-5-(4-methylsulfonylphenyl)-6-(4-fluorophenyl)-3(2H)-pyridazinone], the melting point lay in the range of 181 to 182 °C. Compound `CCn1nc(-c2ccc(F)cc2)c(-c2ccc(S(C)(=O)=O)cc2)cc1=O` [Example 9, 2-Ethyl-5-(4-methylsulfonylphenyl)-6-(4-fluorophenyl)-3(2H)-pyridazinone] displayed a melting point of 177 to 179 °C. For the compound `CS(=O)(=O)c1ccc(-c2cc(=O)n(Cc3ccc(F)cc3)nc2-c2ccc(F)cc2)cc1` [Example 10, 2-(4-Fluorobenzyl)-5-(4-methylsulfonylphenyl)-6-(4-fluorophenyl)-3(2H)-pyridazinone], the melting point was in the range of 150 to 151 °C. Still for that read-out and setting: the same measure for `CCCCn1nc(-c2ccc(F)cc2)c(-c2ccc(S(C)(=O)=O)cc2)cc1=O` [Example 11, 2-(n-Butyl)-5-(4-methylsulfonylphenyl)-6-(4-fluorophenyl)-3(2H)-pyridazinone]: 111 to 113 °C; for `CC(c1ccc(F)cc1)n1nc(-c2ccc(F)cc2)c(-c2ccc(S(C)(=O)=O)cc2)cc1=O` (stereo not drawn) [Example 12, 2-(4-Fluoro-α-methylbenzyl)-5-(4-methylsulfonylphenyl)-6-(4-fluorophenyl)-3(2H)-pyridazinone]: 185 to 186 °C.

In turn, `CCCn1nc(-c2ccc(F)cc2)c(-c2ccc(S(C)(=O)=O)cc2)cc1=O` [Example 13, 2-(n-Propyl)-5-(4-methylsulfonylphenyl)-6-(4-fluorophenyl)-3(2H)-pyridazinone] yielded a melting point of 155 to 157 °C. The compound `CCCCCn1nc(-c2ccc(F)cc2)c(-c2ccc(S(C)(=O)=O)cc2)cc1=O` [Example 14, 2-(n-Pentyl)-5-(4-methylsulfonylphenyl)-6-(4-fluorophenyl)-3(2H)-pyridazinone] came in with a melting point of 65 to 67 °C. As to `CS(=O)(=O)c1ccc(-c2cc(=O)n(CC3CCCCC3)nc2-c2ccc(F)cc2)cc1` [Example 15, 2-Cyclohexylmethyl-5-(4-methylsulfonylphenyl)-6-(4-fluorophenyl)-3(2H)-pyridazin-one], the melting point is 175 to 176 °C. On to `CS(=O)(=O)c1ccc(-c2cc(=O)n(CC(=O)c3ccccc3)nc2-c2ccc(F)cc2)cc1` [Example 16, 2-Phenacyl-5-(4-methylsulfonylphenyl)-6-(4-fluorophenyl)-3(2H)-pyridazinone], for which the melting point was 178 to 180 °C. Same read-out and setting: the same measure for `C#CCn1nc(-c2ccc(F)cc2)c(-c2ccc(S(C)(=O)=O)cc2)cc1=O` [Example 17, 2-Propargyl-5-(4-methylsulfonylphenyl)-6-(4-fluorophenyl)-3(2H)-pyridazinone]: 168 to 169 °C. Consider `CS(=O)(=O)c1ccc(-c2cc(=O)n(C3CCCCC3)nc2-c2ccc(F)cc2)cc1` [Example 18, 2-Cyclohexyl-5-(4-methylsulfonylphenyl)-6-(4-fluorophenyl)-3(2H)-pyridazinone], for which the melting point was in the range of 86 to 90 °C.

Turning to `CC#CCn1nc(-c2ccc(F)cc2)c(-c2ccc(S(C)(=O)=O)cc2)cc1=O` [Example 19, 2-(2-Butyn-1-yl)-5-(4-methylsulfonylphenyl)-6-(4-fluorophenyl)-3(2H)-pyridazinone], the melting point lay in the range of 81 to 82 °C. In turn, `CS(=O)(=O)c1ccc(-c2cc(=O)n(CC3CCC3)nc2-c2ccc(F)cc2)cc1` [Example 20, 2-(Cyclobutylmethyl)-5-(4-methylsulfonylphenyl)-6-(4-fluorophenyl)-3(2H)-pyridazinone] registered a melting point of 74 to 76 °C. On to `CC(C)=CCn1nc(-c2ccc(F)cc2)c(-c2ccc(S(C)(=O)=O)cc2)cc1=O` [Example 21], for which the melting point is 71 to 72 °C.

Regarding `CS(=O)(=O)c1ccc(-c2cc(=O)n(CC3CC3)nc2-c2ccc(F)cc2)cc1` [Example 23, 2-(Cyclopropylmethyl)-5-(4-methylsulfonylphenyl)-6-(4-fluorophenyl)-3(2H)-pyridazinone], the melting point is 130 to 132 °C. Still for that read-out and setting: the result for `CS(=O)(=O)c1ccc(-c2cc(=O)n(CC3CCCC3)nc2-c2ccc(F)cc2)cc1` [Example 24, 2-Cyclopentylmethyl-5-(4-methylsulfonylphenyl)-6-(4-fluorophenyl)-3(2H)-pyridazinone] reads 76 to 77 °C; that for `CS(=O)(=O)c1ccc(-c2cc(=O)n(C3CCCC3)nc2-c2ccc(F)cc2)cc1` [Example 25, 2-Cyclopentyl-5-(4-methylsulfonylphenyl)-6-(4-fluorophenyl)-3(2H)-pyridazinone], 191 to 192 °C.

Source of the values: patent US6525053B1, “Prostaglandin endoperoxide H synthase biosynthesis inhibitors” (Abbott Laboratories, priority 1997, dated 2003).
